Experimental data from US20260216238A1, “TETRATHIOMOLYBDIC ACID FOR USE IN TREATING COPPER METABOLISM-ASSOCIATED DISEASES OR DISORDERS (WILSON DISEASE)” (Alexion Pharmaceuticals, Inc., priority 2023, published 2026).

Tested on: patients with Wilson disease (WD)
Experiment: UWDRS Part III total score, functional subscale and individual items (neurological examination)
Type: in vivo, human
Settings: for UWDRS Part III Functional Subscale (0-10) change from baseline, Mean (SD) / UWDRS Part III (0-175) change from baseline, Mean (SD): pooled Studies 301 and 201
Procedure: The UWDRS scoring system was developed specifically for the motor and movement disorders associated with chronic copper neurotoxicity in WD. Some individual items/subscales of the UWDRS Part III (arising from a chair, gait, handwriting, and speech) in addition to the UWDRS Parts I, II, and III overall, were assessed to further define the range of burdensome signs and symptoms of WD, so as to further understand the assessment of treatment effects on patients with WD. The UWDRS scores for consciousness (Part I) and abnormal neurologic examination findings (Part III) will be determined by a trained neurologist rater who is blinded to study treatment randomization. These scores were used to provide a rigorous dataset for evaluating changes from baseline.
Unified Wilson Disease Rating Scale (Parts I, II, and III): The UWDRS is a clinical rating scale designed to evaluate the neurological manifestations of WD that generally can be divided into 3 movement disorder syndromes: dystonic, ataxic, and Parkinsonian syndrome. The UWDRS comprises 3 parts: UWDRS Part I (level of consciousness, item 1), UWDRS Part II (a patient-reported review of daily activity items [disability], items 2 to 11), and UWDRS Part III (a detailed neurological examination, items 12 to 34).
The UWDRS Part I and Part III were assessed by a neurologist who is blinded to the treatment randomization, while UWDRS Part II may be reported to a non-blinded member of the study team by the patient, family member, or caregiver. The UWDRS has not been formally evaluated in adolescents. However, the components of Part I (level of consciousness), Part II (patient or caregiver-reported disability) and Part III (neurologic examination findings) were not fundamentally different between adults and adolescents. Patients aged 12 years and older were expected to be able to comply with UWDRS assessments.
Pooled results from all such participants will be integrated together into one timeline to allow analyses of changes in UWDRS, long-term copper control, and long-term safety laboratory data.
Endpoints (directly measured non-ceruloplasmin-bound copper [dNCC], UWDRS III (rater blinded) total and individual item scores, Clinical Global Impression-Improvement [CGI-I]) were evaluated at baseline (BL) and Week 48 (W48). Normalization (score decrease to 0), improvement (≥1 point decrease), stability (no change), or worsening (≥1 point increase) of total and individual UWDRS III item scores were evaluated at W48.

[1] = Week 24, Cohort 1, Study 201, n=8
[2] = Week 24, Cohort 1, Study 301, TTM n=90, SoC n=47
[3] = Week 24, Cohort 1, Total (Studies 301, 201, 205), n=98
[4] = Week 24, Study 301 TTM long term set
[5] = Week 48, Cohort 1, Study 201, n=9
[6] = Week 48, Cohort 1, Study 205, n=27
[7] = Week 48, Cohort 1, Study 301, TTM n=91, SoC n=49
[8] = Week 48, Cohort 1, Total (Studies 301, 201, 205), n=127

For bis-choline tetrathiomolybdate [TTM], the “UWDRS Part III Functional Subscale (0-10) change from baseline, Mean (SD)” value (TTM exposure 144 weeks) was −1.042 (1.7227), the “UWDRS-III change from baseline, Mean (SD)” value (from here on “UWDRS-III change … (SD)”) (TTM exposure 168 weeks, N=18) was −18.08 (19.127) and the “UWDRS Part III (0-175) change from baseline, Mean (SD)” value (from here on “UWDRS Part III (0-175) change … (SD)”) (TTM exposure 168 weeks) was −18.08 (19.127). For the same substance, the “UWDRS Part III Functional Subscale (0-10) change from baseline, Mean (SD)” value (TTM exposure 168 weeks) was −1.841 (2.1818), the “UWDRS-III change … (SD)” value (TTM exposure 192 weeks, N=19) was −12.65 (19.476) and the “UWDRS Part III (0-175) change … (SD)” value (TTM exposure 192 weeks) was −12.65 (19.476). The “UWDRS Part III Functional Subscale (0-10) change from baseline, Mean (SD)” value (TTM exposure 192 weeks) was −1.250 (2.1459), the “UWDRS-III change … (SD)” value (TTM exposure 216 weeks, N=14) was −16.17 (19.323) and the “UWDRS Part III (0-175) change … (SD)” value (TTM exposure 216 weeks) was −16.17 (19.323). The “UWDRS Part III Functional Subscale (0-10) change from baseline, Mean (SD)” value (TTM exposure 216 weeks) was −1.519 (2.3987), the “UWDRS-III change … (SD)” value (TTM exposure 240 weeks, N=13) was −11.48 (16.473) and the “UWDRS Part III (0-175) change … (SD)” value (TTM exposure 240 weeks) was −11.48 (16.473). For the same substance, the “UWDRS Part III Functional Subscale (0-10) change from baseline, Mean (SD)” value (TTM exposure 240 weeks) was −0.898 (1.3384), the “UWDRS-III change … (SD)” value (TTM exposure 264 weeks, N=13) was −14.00 (16.513) and the “UWDRS Part III (0-175) change … (SD)” value (TTM exposure 264 weeks) was −14.00 (16.513). For the same substance, the “UWDRS Part III Functional Subscale (0-10) change from baseline, Mean (SD)” value (TTM exposure 264 weeks) was −0.995 (1.2369), the “UWDRS Part III-gait (0-10), Difference at 48 weeks, LSM” value (TTM vs SoC, P 0.4325) was −0.15 and the “UWDRS Part III-handwriting (0-4), Difference at 48 weeks, LSM” value (TTM vs SoC, P 0.5077) was −0.1. The “UWDRS Part III functional subscale (0-10), Difference at 48 weeks, LSM” value (TTM vs SoC, P 0.6191) was −0.067, the “UWDRS Part III-arising from chair (0-4), Difference at 48 weeks, LSM” value (TTM vs SoC, P 0.6869) was 0.0 and the “UWDRS Part III-speech (0-4), Difference at 48 weeks, LSM” value (TTM vs SoC, P 0.7238) was 0.0. For the same substance, the “UWDRS Part III (0-175), Difference at 48 weeks, LSM” value (TTM vs SoC, P 0.9441) was −0.09, the “UWDRS III total, LSM difference (SE) TTM versus SoC” value (W0-W48, cohort 1 incomplete response or intolerant, p=0.7084) was −0.53 (1.426) and the “UWDRS-III, Change from Baseline, Max” value [1] was 1.0. For the same substance, the “UWDRS-III, Change from Baseline, Mean” value [1] was −13.82, the “UWDRS-III, Change from Baseline, Median” value [1] was −13.50 and the “UWDRS-III, Change from Baseline, Min” value [1] was −35.0,. For the same substance, the “UWDRS-III, Change from Baseline, Q1” value [1] was −19.80,, the “UWDRS-III, Change from Baseline, Q3” value [1] was −5.00 and the “UWDRS-III, Change from Baseline, Max” value [2] was 13.0. For the same substance, the “UWDRS-III, Change from Baseline, Mean” value [2] was −0.86, the “UWDRS-III, Change from Baseline, Median” value [2] was 0.00 and the “UWDRS-III, Change from Baseline, Min” value [2] was −18.7,. The “UWDRS-III, Change from Baseline, Q1” value [2] was −3.00,, the “UWDRS-III, Change from Baseline, Q3” value [2] was 1.00 and the “UWDRS-III, Change from Baseline, Max” value [3] was 13.0. For the same substance, the “UWDRS-III, Change from Baseline, Mean” value [3] was −1.92, the “UWDRS-III, Change from Baseline, Median” value [3] was −1.00 and the “UWDRS-III, Change from Baseline, Min” value [3] was −35.0,. The “UWDRS-III, Change from Baseline, Q1” value [3] was −4.00,, the “UWDRS-III, Change from Baseline, Q3” value [3] was 1.00 and the “UWDRS-III, Change from Baseline, LSM Diff (TTM vs. SoC)” value (Week 24, Cohort 1, TTM Total vs SoC Study 301, P-value 0.3884) was −1.00. The “UWDRS-III, Change from Baseline, LSM” value (Week 24, Cohort 1, TTM Total, SoC Study 301) was −1.72, the “UWDRS Part III (0-175) change from baseline, LSM” value [4] was −1.32 and the “UWDRS Part III (0-175) change from baseline, Mean” value [4] was −0.74. For the same substance, the “UWDRS Part III functional subscale (0-10) change from baseline, LSM” value [4] was −0.158, the “UWDRS Part III functional subscale (0-10) change from baseline, Mean” value [4] was −0.139 and the “UWDRS Part III-arising from chair (0-4) change from baseline, LSM” value [4] was −0.1. The “UWDRS Part III-arising from chair (0-4) change from baseline, Mean” value [4] was 0.0, the “UWDRS Part III-gait (0-4) change from baseline, LSM” value [4] was −0.21 and the “UWDRS Part III-gait (0-4) change from baseline, Mean” value [4] was −0.17. The “UWDRS Part III-handwriting (0-4) change from baseline, LSM” value [4] was 0.0, the “UWDRS Part III-handwriting (0-4) change from baseline, Mean” value [4] was −0.1 and the “UWDRS Part III-speech (0-4) change from baseline, LSM” value [4] was −0.1. For the same substance, the “UWDRS Part III-speech (0-4) change from baseline, Mean” value [4] was −0.1, the “UWDRS-III, Change from Baseline, Max” value [5] was 2.0 and the “UWDRS-III, Change from Baseline, Mean” value [5] was −19.44. The “UWDRS-III, Change from Baseline, Median” value [5] was −13.00, the “UWDRS-III, Change from Baseline, Min” value [5] was −48.0, and the “UWDRS-III, Change from Baseline, Q1” value [5] was −29.00,. The “UWDRS-III, Change from Baseline, Q3” value [5] was −9.00, the “UWDRS-III, Change from Baseline, Max” value [6] was 6.0 and the “UWDRS-III, Change from Baseline, Mean” value [6] was −2.81. The “UWDRS-III, Change from Baseline, Median” value [6] was −2.00, the “UWDRS-III, Change from Baseline, Min” value [6] was −17.0, and the “UWDRS-III, Change from Baseline, Q1” value [6] was −6.00,. For the same substance, the “UWDRS-III, Change from Baseline, Q3” value [6] was 0.00, the “UWDRS-III, Change from Baseline, Max” value [7] was 31.0 and the “UWDRS-III, Change from Baseline, Mean” value [7] was −2.24. For the same substance, the “UWDRS-III, Change from Baseline, Median” value [7] was −1.00, the “UWDRS-III, Change from Baseline, Min” value [7] was −28.0, and the “UWDRS-III, Change from Baseline, Q1” value [7] was −4.00,. For the same substance, the “UWDRS-III, Change from Baseline, Q3” value [7] was 0.00, the “UWDRS-III, Change from Baseline, Max” value [8] was 31.0 and the “UWDRS-III, Change from Baseline, Mean” value [8] was −3.58.
